25 compounds from patent US12318403B2, “2′3′-cyclic dinucleotides and prodrugs thereof” (INSTITUTE OF ORGANIC CHEMISTRY AND BIOCHEMISTRY ASCR, V.V.I., priority 2019, dated 2025) can be followed below.

Molecules are shown by their SMILES. pEC50: −log10 of the molar value. Where two headings read alike, the source gives them in different places.

In experiment [1] the test system is peripheral blood mononuclear cell (PBMC). Description: Peripheral blood mononuclear cell assay. The settings on record: average of one to four donors.
Experimental: Selected compounds were tested in an in vitro peripheral blood mononuclear cell (PBMC) assay. […] Serially diluted tested compounds were added to wells in 50 μl of cultivation medium and cells were incubated with the compounds for 1h at 37° C. with 5% CO2. Plates with cells were then spun 500 g for 5 minutes and the medium was removed. Cells were washed twice with the cell culture medium by the use of centrifugation and gently resuspended in 100 μl medium without compounds. After 15 hour incubation at 37° C. with 5% CO2, the cell culture medium was collected and the levels of interferon-alpha (INF-α), interferon-gamma (INF-γ) and tumor necrosis factor-alpha (TNF-α) were determined with ProcartaPlex Assays (ThermoFisher, Waltham, USA) and MAGPIX System (Merck KGaA, Darmstadt, Germany). […] Values reported are an average of runs from one to four donors.
In experiment [2] the target is human wild type STING (WT STING) (Homo sapiens, UniProt Q86WV6, H232R). Nature of the experiment: 293T WT STING standard reporter assay. The following applies: standard reporter assay without digitonin, 7 hours, ISRE firefly luciferase. Type of experiment: cell-based.
human wild type STING (WT STING), sequence (Q86WV6 whole entry H232R): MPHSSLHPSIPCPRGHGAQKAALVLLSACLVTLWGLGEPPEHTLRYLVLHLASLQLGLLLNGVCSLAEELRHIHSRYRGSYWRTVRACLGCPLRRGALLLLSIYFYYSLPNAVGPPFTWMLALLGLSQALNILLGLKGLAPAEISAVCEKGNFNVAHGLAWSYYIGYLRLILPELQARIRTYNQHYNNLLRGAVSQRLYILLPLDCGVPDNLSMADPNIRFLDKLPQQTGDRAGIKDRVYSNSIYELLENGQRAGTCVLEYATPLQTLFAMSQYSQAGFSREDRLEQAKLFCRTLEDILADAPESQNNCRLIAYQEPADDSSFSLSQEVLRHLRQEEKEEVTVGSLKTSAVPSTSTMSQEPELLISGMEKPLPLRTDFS
[3] abbreviates: PBMC, read-out: PBMC EC50 IFN-α, compounds 1h, washed, 15 hour incubation, interferon-alpha level in medium.
The mark [4] stands for this setting: PBMC, read-out: PBMC EC50 IFN-γ, compounds 1h, washed, 15 hour incubation, interferon-gamma level in medium.
The mark [5] stands for this setting: PBMC, read-out: PBMC EC50 TNF-α, compounds 1h, washed, 15 hour incubation, tumor necrosis factor-alpha level in medium.
The mark [6] stands for this setting: 293T WT STING EC50, 293T wtSTING-FL cells.
[7] abbreviates: 293T wtSTING-FL cells, read-out: 293T WT STING EC50.

On to `CC(C)(C)C(=O)OCSP1(=O)CO[C@H]2[C@@H](F)[C@H](n3cnc4c(N)ncnc43)O[C@@H]2COP(=O)(SCOC(=O)C(C)(C)C)O[C@@H]2[C@H](F)[C@@H](CO1)O[C@H]2n1cnc2c(=O)[nH]c(N)nc21` (single isomer, unassigned) [Compound 55c], for which the pEC50 was 5.00 in experiment [1] (setting [3]), 5.43 in experiment [1] (setting [4]), 5.15 in experiment [1] (setting [5]) and 6.19 in experiment [2] (setting [6]).

For the compound `CC(C)OC(=O)OCOP1(=O)CO[C@H]2[C@@H](F)[C@H](n3cnc4c(N)ncnc43)O[C@@H]2COP(=O)(OCOC(=O)OC(C)C)O[C@@H]2[C@H](F)[C@@H](CO1)O[C@H]2n1cnc2c(N)ncnc21` (single isomer, unassigned) [Compound 80a], the pEC50 is below 5.30 in experiment [1] (setting [3]), below 5.30 in experiment [1] (setting [4]), below 5.30 in experiment [1] (setting [5]) and 5.38 in experiment [2] (setting [7]).

Consider `CC(C)(C)C(=O)OCOP1(=O)CO[C@H]2[C@@H](F)[C@H](n3cnc4c(N)ncnc43)O[C@@H]2COP(=O)(OCOC(=O)C(C)(C)C)O[C@@H]2[C@H](F)[C@@H](CO1)O[C@H]2n1cnc2c(=O)[nH]cnc21` (single isomer, unassigned) [Compound 77b], for which the negative logarithm of the EC50 (pEC50) in experiment [1] (read-out: PBMC EC50 IFN-α, compounds 1h, washed, 15 hour incubation, interferon-alpha level in medium) was 5.40; in experiment [1] (read-out: PBMC EC50 IFN-γ, compounds 1h, washed, 15 hour incubation, interferon-gamma level in medium), 5.52; in experiment [1] (read-out: PBMC EC50 TNF-α, compounds 1h, washed, 15 hour incubation, tumor necrosis factor-alpha level in medium), 5.44; in experiment [2] (setting [7]), 6.52.

Compound `CCCCCC(=O)Oc1ccc(CSP2(=O)CO[C@H]3[C@@H](F)[C@H](n4cnc5c(N)ncnc54)O[C@@H]3COP(=O)(O)O[C@@H]3[C@H](F)[C@@H](CO2)O[C@H]3n2cnc3c(=O)[nH]c(N)nc32)cc1` (single isomer, unassigned) [Compound 42b] had a pEC50 in experiment [2] (setting [6]) of 6.70.

`Nc1ncnc2c1ncn2[C@@H]1O[C@@H]2COP(=O)(O)O[C@@H]3[C@H](F)[C@@H](COP(=O)(O)CO[C@H]2[C@H]1F)O[C@H]3n1cnc2c(=O)[nH]cnc21` [Compound 22]: the pEC50 in experiment [1] (setting [3]) was 3.80; in experiment [1] (setting [4]), 3.90; in experiment [1] (setting [5]), 4.05; in experiment [2] (setting [7]), 5.09.

Compound `CCCCCCCCCCCC(=O)Oc1ccc(CSP2(=O)CO[C@H]3[C@@H](F)[C@H](n4cnc5c(N)ncnc54)O[C@@H]3COP(=O)(O)O[C@@H]3[C@H](F)[C@@H](CO2)O[C@H]3n2cnc3c(=O)[nH]c(N)nc32)cc1` (single isomer, unassigned) [Compound 47a] had a pEC50 in experiment [2] (setting [6]) of 7.30.

As for `CCCCCCCCCC(=O)Oc1ccc(CSP2(=O)CO[C@H]3[C@@H](F)[C@H](n4cnc5c(N)ncnc54)O[C@@H]3COP(=O)(O)O[C@@H]3[C@H](F)[C@@H](CO2)O[C@H]3n2cnc3c(=O)[nH]c(N)nc32)cc1` (single isomer, unassigned) [Compound 46b], the pEC50 in experiment [2] (read-out: 293T WT STING EC50, 293T wtSTING-FL cells) was 7.22.

In the case of `CCCCCC(=O)Oc1ccc(C(=O)Oc2ccc(CSP3(=O)CO[C@H]4[C@@H](F)[C@H](n5cnc6c(N)ncnc65)O[C@@H]4COP(=O)(O)O[C@@H]4[C@H](F)[C@@H](CO3)O[C@H]4n3cnc4c(=O)[nH]c(N)nc43)cc2)cc1` (single isomer, unassigned) [Compound 49b], the negative logarithm of the EC50 (pEC50) in experiment [2] (setting [6]) was 5.35.

The compound `CCCCCCCCCC(=O)Oc1ccc(CSP2(=O)CO[C@H]3[C@@H](F)[C@H](n4cnc5c(N)ncnc54)O[C@@H]3COP(=O)(O)O[C@@H]3[C@H](F)[C@@H](CO2)O[C@H]3n2cnc3c(=O)[nH]c(N)nc32)cc1` (single isomer, unassigned) [Compound 46a] gave a negative-log EC50 (pEC50) in experiment [2] (setting [6]) of 7.22.

Consider `CC(C)(C)C(=O)OCSP1(=O)CO[C@H]2[C@@H](F)[C@H](n3cnc4c(N)ncnc43)O[C@@H]2COP(=O)(O)O[C@@H]2[C@H](F)[C@@H](CO1)O[C@H]2n1cnc2c(=O)[nH]c(N)nc21` (single isomer, unassigned) [Compound 41a], for which the pEC50 in experiment [2] (setting [6]) is 4.98.

Turning to `CC(C)(C)C(=O)OCSP1(=O)CO[C@H]2[C@@H](F)[C@H](n3cnc4c(N)ncnc43)O[C@@H]2COP(=O)(O)O[C@@H]2[C@H](F)[C@@H](CO1)O[C@H]2n1cnc2c(=O)[nH]c(N)nc21` (single isomer, unassigned) [Compound 41b], the negative-log EC50 (pEC50) in experiment [2] (setting [6]) is 4.06.

Consider `CC(C)(C)C(=O)OCOc1ccc(CSP2(=O)CO[C@H]3[C@@H](F)[C@H](n4cnc5c(N)ncnc54)O[C@@H]3COP(=O)(O)O[C@@H]3[C@H](F)[C@@H](CO2)O[C@H]3n2cnc3c(=O)[nH]c(N)nc32)cc1` (single isomer, unassigned) [Compound 44a], for which the pEC50 in experiment [2] (setting [6]) was 5.72.

In turn, `CCCCCCCCCCCC(=O)OCSP1(=O)CO[C@H]2[C@@H](F)[C@H](n3cnc4c(N)ncnc43)O[C@@H]2COP(=O)(O)O[C@@H]2[C@H](F)[C@@H](CO1)O[C@H]2n1cnc2c(=O)[nH]c(N)nc21` (single isomer, unassigned) [Compound 76a] had a negative-log EC50 (pEC50) in experiment [2] (setting [6]) of 6.52.

In turn, `CC(C)(C)C(=O)OCSP1(=O)CO[C@H]2[C@@H](F)[C@H](n3cnc4c(N)ncnc43)O[C@@H]2COP(=O)(SCOC(=O)C(C)(C)C)O[C@@H]2[C@H](F)[C@@H](CO1)O[C@H]2n1cnc2c(=O)[nH]c(N)nc21` (single isomer, unassigned) [Compound 55d] showed a pEC50 in experiment [2] (setting [6]) of 6.52.

As to `CCCCCCCCCCCC(=O)Oc1ccc(CSP2(=O)CO[C@H]3[C@@H](F)[C@H](n4cnc5c(N)ncnc54)O[C@@H]3COP(=O)(O)O[C@@H]3[C@H](F)[C@@H](CO2)O[C@H]3n2cnc3c(=O)[nH]c(N)nc32)cc1` (single isomer, unassigned) [Compound 47b], the pEC50 in experiment [2] (setting [6]) was 7.05.

The compound `CCCCCC(=O)Oc1ccc(CSP2(=O)CO[C@H]3[C@@H](F)[C@H](n4cnc5c(N)ncnc54)O[C@@H]3COP(=O)(O)O[C@@H]3[C@H](F)[C@@H](CO2)O[C@H]3n2cnc3c(=O)[nH]c(N)nc32)cc1` (single isomer, unassigned) [Compound 42a] showed a negative-log EC50 (pEC50) in experiment [2] (setting [6]) of 6.52.

For the compound `CCCCCCCC(=O)OCSP1(=O)CO[C@H]2[C@@H](F)[C@H](n3cnc4c(N)ncnc43)O[C@@H]2COP(=O)(SCOC(=O)CCCCCCC)O[C@@H]2[C@H](F)[C@@H](CO1)O[C@H]2n1cnc2c(=O)[nH]c(N)nc21` (stereo partly drawn) [Compound 69b, {[(1S,6R,8R,9R,10R,16R,18R,19R)-18-(2-amino-6-oxo-6,9-dihydro-1H-purin-9-yl)-8-(6-amino-9H-purin-9-yl)-9,19-difluoro-13-{[(octanoyloxy)methyl]sulfanyl}-3,13-dioxo-2,4,7,11,14,17-hexaoxa-3λ^5,13λ^5-diphosphatricyclo[14.2.1.0^6,10]nonadecan-3-yl]sulfanyl}methyl octanoate], the negative-log EC50 (pEC50) in experiment [2] (setting [6]) was 6.70.

In experiment [2] (setting [6]), `CSP1(=O)CO[C@H]2[C@@H](F)[C@H](n3cnc4c(N)ncnc43)O[C@@H]2COP(=O)(SC)O[C@@H]2[C@H](F)[C@@H](CO1)O[C@H]2n1cnc2c(=O)[nH]c(N)nc21` (stereo partly drawn) [Compound 52c, (1S,6R,8R,9R,10R,16R,18R,19R)-18-(2-amino-6-oxo-6,9-dihydro-1H-purin-9-yl)-8-(6-amino-9H-purin-9-yl)-9,19-difluoro-3,13-bis(methylsulfanyl)-2,4,7,11,14,17-hexaoxa-3λ^5,13λ^5-diphosphatricyclo[14.2.1.0^6,10]nonadecane-3,13-dione] had a pEC50 below 4.70.

For the compound `CCCCCC(=O)Oc1ccc(C(=O)Oc2ccc(CSP3(=O)CO[C@H]4[C@@H](F)[C@H](n5cnc6c(N)ncnc65)O[C@@H]4COP(=O)(O)O[C@@H]4[C@H](F)[C@@H](CO3)O[C@H]4n3cnc4c(=O)[nH]c(N)nc43)cc2)cc1` (single isomer, unassigned) [Compound 49a], the pEC50 in experiment [2] (setting [6]) was 5.74.

In the case of `CC(C)(C)C(=O)Oc1ccc(CSP2(=O)CO[C@H]3[C@@H](F)[C@H](n4cnc5c(N)ncnc54)O[C@@H]3COP(=O)(O)O[C@@H]3[C@H](F)[C@@H](CO2)O[C@H]3n2cnc3c(=O)[nH]c(N)nc32)cc1` (single isomer, unassigned) [Compound 43a], in experiment [2] (setting [6]), the negative-log EC50 (pEC50) is 5.92.

Compound `CCCCCCCCCCCC(=O)OCSP1(=O)CO[C@H]2[C@@H](F)[C@H](n3cnc4c(N)ncnc43)O[C@@H]2COP(=O)(O)O[C@@H]2[C@H](F)[C@@H](CO1)O[C@H]2n1cnc2c(=O)[nH]c(N)nc21` (single isomer, unassigned) [Compound 76b] showed a negative-log EC50 (pEC50) in experiment [2] (setting [6]) of 7.52.

`CCCC(=O)Oc1ccc(CSP2(=O)CO[C@H]3[C@@H](F)[C@H](n4cnc5c(N)ncnc54)O[C@@H]3COP(=O)(O)O[C@@H]3[C@H](F)[C@@H](CO2)O[C@H]3n2cnc3c(=O)[nH]c(N)nc32)cc1` (single isomer, unassigned) [Compound 48b] showed a pEC50 in experiment [2] (setting [6]) of 5.47.

For the compound `CC(C)(C)C(=O)Oc1ccc(CSP2(=O)CO[C@H]3[C@@H](F)[C@H](n4cnc5c(N)ncnc54)O[C@@H]3COP(=O)(O)O[C@@H]3[C@H](F)[C@@H](CO2)O[C@H]3n2cnc3c(=O)[nH]c(N)nc32)cc1` (single isomer, unassigned) [Compound 43b], the pEC50 in experiment [2] (setting [6]) was 5.51.

In experiment [2] (setting [6]), `CC(C)(C)C(=O)OCOc1ccc(CSP2(=O)CO[C@H]3[C@@H](F)[C@H](n4cnc5c(N)ncnc54)O[C@@H]3COP(=O)(O)O[C@@H]3[C@H](F)[C@@H](CO2)O[C@H]3n2cnc3c(=O)[nH]c(N)nc32)cc1` (single isomer, unassigned) [Compound 44b] had a pEC50 of 6.30.

Compound `CCCCCCCC(=O)Oc1ccc(CSP2(=O)CO[C@H]3[C@@H](F)[C@H](n4cnc5c(N)ncnc54)O[C@@H]3COP(=O)(O)O[C@@H]3[C@H](F)[C@@H](CO2)O[C@H]3n2cnc3c(=O)[nH]c(N)nc32)cc1` (single isomer, unassigned) [Compound 45a] showed a negative-log EC50 (pEC50) in experiment [2] (setting [6]) of 6.52.
